{
  "source": "patent US20140134230A1",
  "about": "“TRANSDERMAL THERAPEUTIC SYSTEM” (priority 2005, published 2014)",
  "key": {"[1]": {"assay": "Rivastigmine's biopharmaceutical properties in humans", "type": "in vivo", "excerpt": "Little has been published in detail on rivastigmine's biopharmaceutical properties in humans. […] It is subject to pre-systemic and systemic metabolism."}, "[2]": {"assay": "Saturation solubility of rivastigmine free base in the silicone adhesive", "type": "physicochemical"}},
  "data": [
    {"smiles": "CCN(C)C(=O)Oc1cccc([C@H](C)N(C)C)c1", "note": "[rivastigmine]", "values": [
      {"measurement": "absorption", "setting": "[1]", "result": "rapidly and completely absorbed"},
      {"measurement": "metabolism", "setting": "[1]", "result": "metabolised mainly through hydrolysis by esterases"},
      {"measurement": "saturation solubility in the silicone adhesive", "setting": "[2]", "result": "about 5 %-wt."}
    ]}
  ]
}
